Among the data in PMC2649750 (The Journal of pharmacology and experimental therapeutics, 2008) are Ki values, retold here.

The structures appear in SMILES notation.

The assay addresses tubulin. The assay can be described thus: inhibition of [3H]vinblastine binding. Further details: species or system Bos taurus.

Consider `C/C=C/C(O)C(C)(C)[C@@H]1C\C=C/C=C\C=C/[C@H](OC)Cc2nc(co2)C(=O)O[C@H](C(C)(C)C(O)/C=C/C)C/C=C\C=C/C=C[C@H](OC)Cc2nc(co2)C(=O)O1` (stereo partly shown) [disorazole C1], for which the affinity, expressed as Ki, was 4.5 ± 0.6 µM.
